Measured values reported in publication PMC8623273, “Novel N7-Arylmethyl Substituted Dinucleotide mRNA 5′ cap Analogs: Synthesis and Evaluation as Modulators of Translation” (Pharmaceutics, 2021).

Tests used:
hDcpS = molecular target: T1, hDcpS (Homo sapiens, UniProt Q96C86); format: in vitro ADME; settings: 100 μM compound, 20 nM hDcpS; for hDcpS Assay: fraction of the cap remaining after 1 h incubation with DcpS: 37 °C
T1 sequence (Q96C86 1-337): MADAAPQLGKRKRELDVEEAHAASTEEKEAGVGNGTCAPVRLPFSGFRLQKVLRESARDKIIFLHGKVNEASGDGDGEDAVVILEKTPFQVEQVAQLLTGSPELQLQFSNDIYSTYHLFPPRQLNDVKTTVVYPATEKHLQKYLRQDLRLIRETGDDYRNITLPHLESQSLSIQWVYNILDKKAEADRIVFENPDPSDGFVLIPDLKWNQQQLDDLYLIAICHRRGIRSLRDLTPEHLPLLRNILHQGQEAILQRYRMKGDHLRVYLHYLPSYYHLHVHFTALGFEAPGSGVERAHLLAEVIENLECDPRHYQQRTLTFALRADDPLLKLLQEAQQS
Experimental: Susceptibility to decapping scavenger (DcpS) is one of the factors that could potentially influence the cellular stability of mono- and dinucleotide cap analogs designed as translational inhibitors. Therefore, we studied the susceptibility of arylmethyl-modified dinucleotides to DcpS. The compounds (at 100 μM concentration each) were incubated with 20 nM of hDcpS, and the hydrolysis progress at different time points was analyzed via RP HPLC and compared to m^7GpppG (Figure 4 and Figure S3).
The enzymatic activity of DcpS was assayed at 37 °C in 50 mM Tris∙HCl, pH 7.6 containing 200 mM KCl, 0.5 mM EDTA. DcpS cleavage assays were carried out with 100 μM of the tested compound and 20 nM (monomer) of the hDcpS. Enzymatic reaction progress was examined after 30, 60 and 180 min. As a control, a sample was examined before adding enzyme. Aliquots of 15 μL were terminated by heat inactivation of the enzyme for 3 min at 98 °C. The samples were analyzed via RP HPLC equipped with a Supelcosil LC-18-T column (4.6 × 250 mm, 5 μm, flow rate 1.3 mL/min).

eIF4E [1] = molecular target: T2, eIF4E (Mus musculus, UniProt P63073); experiment: fluorescence anisotropy (FA) competition assay with eIF4E; format: binding; settings: Table S2; for EC50: 25 °C, probe m^7GTP-triazol-FAM 10 nM, eIF4E 100 nM; for Kd: calculated from EC50
From the text: The KD values determined from the high-throughput assay were in qualitative agreement with data from time-synchronized fluorescence quenching titration, justifying the use of the former for evaluation of the whole set of caps. […] To additionally verify the binding affinity data (especially for 1q and 1r, as mentioned above), we determined the binding affinities for all analogs using another independent assay, based on fluorescence anisotropy. The KD data determined by this method correlated very well with the results reported above (Table S2, Figure S2).
Fractions of the compounds were independently tested using a different method based on fluorescence anisotropy (FA). These experiments were performed on a Synergy™ H1 plate reader in 96-well, black, non-binding assay plates. Each well contained appropriate buffer (50 mM HEPES/KOH pH 7.2, 100 mM KCl, 0.5 mM EDTA i 1 mM DTT), the fluorescent probe m^7GTP-triazol-FAM (10 nM), substrate (in a 2.08-fold dilution, starting from 60 μM) and protein eIF4E (100 nM). The m^7GTP-triazol-FAM was synthesized as describer earlier. All measurements were performed at 25 °C. Determined EC50 values were means ± SD of three independent experiments. The dissociation constants KD were then calculated using the equation described by Nikolovska-Coleska as described earlier.

A549 cells = experiment: translational efficiency of mRNAs capped with the analogs in A549 cells (Gaussia luciferase); format: cell-based
Experimental: Finally, we tested the properties of arylmethyl cap analogs as reagents for co-transcriptional mRNA capping. […] Here, we sought to evaluate the translational properties of mRNAs capped with N7-arylmethyl analogs in cultured cells. To that end, the translation properties of transcripts capped with selected analogs were assessed in A549 cells. In vitro transcribed mRNAs encoding Gaussia luciferase, capped with compounds 1a–1k, 1m–1n, and 1p–1r or with reference analogues m^7GpppG and ARCA (m^7GmpppG), were purified via RP HPLC, transfected into A549 cells, and the protein activity (luminescence) was measured using a reporter assay at 72 h post-transfection. The total amount of protein produced over 72 h from each capped RNA was normalized to m^7GpppG RNA (Figure 6 and Figure S4). […] Namely, replacing the N7-methyl group with a benzyl moiety (1a) increased protein production over fivefold in A549 cells compared to m^7GpppG-capped mRNA (Figure 6).
The influence of N7-arylmethylated dinucleotide 5′ cap analogues on the translational properties of HPLC-purified IVT mRNA is shown in Figure S4, Measurements are total protein produced over 72 h by A549 cells transfected with capped mRNAs. Each plot in Figure S4 represents a single experiment consisting of three independent transfections of the cells at the same passage. Bars show mean value normalized to […] ± SD. In the main manuscript, all nine data points from three different cell passages were combined to present cumulative protein expression.

eIF4E [2] = molecular target: T2, eIF4E; experiment: time-synchronized fluorescence quenching titration with eIF4E; format: binding; settings: 50 mM Hepes pH 7.2, 134.5 mM KCl, 20 °C, read-out: KD Cap-eIF4E ± SD (value in brackets) (converted)
From the text: High affinity for eIF4E is a desirable feature of cap analogs designed for modulating translation, either as small molecules or as a part of mRNA. Thus, we studied how different substituents at the N7-position affected eIF4E-cap interaction. To this end, we first determined the affinity of m^7GpppG and Bn^7GpppG (1a) using time-synchronized fluorescence quenching titration, a very precise and well-established, but low-throughput method. Next, to evaluate the whole set of the synthesized compounds (1a–1r), we used a high-throughput competitive-binding assay based on a pyrene-labeled fluorescent probe. From this assay we determined relative affinities of the compounds represented by half-effective concentrations (EC50) (Figure 3A–C), which were then used to calculate dissociation constant (KD) values for cap analog–eIF4E complexes using previously reported equations (Table 2, Figure 3D).

[3] = test system: translation in vitro (RRL); set-up: method as in PMID 15317978; settings: cap incorporated into mRNA; cited from earlier work

T2 sequence (P63073 whole entry): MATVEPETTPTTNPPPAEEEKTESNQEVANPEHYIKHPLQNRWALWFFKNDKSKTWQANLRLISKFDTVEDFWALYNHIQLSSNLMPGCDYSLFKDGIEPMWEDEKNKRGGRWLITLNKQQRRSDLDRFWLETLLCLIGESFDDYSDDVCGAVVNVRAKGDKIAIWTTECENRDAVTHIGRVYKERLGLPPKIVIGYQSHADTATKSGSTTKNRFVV

SMILES	susceptibility to hDcpS (in words) (hDcpS)	hDcpS Assay: fraction of the cap remaining after 1 h incubation with DcpS (hDcpS)	EC50 (eIF4E [1]) [nM]	Kd (eIF4E [1]) [nM]	conversion after 1 h of incubation with hDcpS (hDcpS)	increase of protein production compared to ARCA (A549 cells; A549 cells, 72 h) [fold]	Kd (eIF4E [2]) [nM]	translation efficiency in vitro relative to m^7GpppG-capped mRNAs [3]	increase of protein production compared to m^7GpppG-capped mRNA (A549 cells; A549 cells, 72 h)	change of protein expression of ARCA analog compared to 2'-O-unmethylated counterpart (1q vs 1a, 1r vs 1h) (A549 cells; A549 cells, 72 h)	Rel. Protein Expression (A549 cells; mRNA capped with the analog, Gaussia luciferase activity in A549 cells 72 h post-transfection, normalized to m^7GpppG RNA)
Cc1cccc(C[n+]2cn([C@@H]3O[C@H](COP(=O)(O)OP(=O)([O-])OP(=O)(O)OC[C@H]4O[C@@H](n5cnc6c(=O)[nH]c(N)nc65)[C@H](O)[C@@H]4O)[C@@H](O)[C@H]3O)c3nc(N)nc(O)c32)c1 [1c, 3-MeBn^7GpppG]	very slowly hydrolyzed	0.84	670 ± 20	222 ± 8							
Nc1nc(O)c2c(n1)n([C@@H]1O[C@H](COP(=O)(O)OP(=O)([O-])OP(=O)(O)OC[C@H]3O[C@@H](n4cnc5c(=O)[nH]c(N)nc54)[C@H](O)[C@@H]3O)[C@@H](O)[C@H]1O)c[n+]2Cc1ccc(C(F)(F)F)cc1 [1l, 4-CF3-Bn^7GpppG]	Lower susceptibility to hydrolysis	0.87	590 ± 40	194 ± 17							
Nc1nc(O)c2c(n1)n([C@@H]1O[C@H](COP(=O)(O)OP(=O)([O-])OP(=O)(O)OC[C@H]3O[C@@H](n4cnc5c(=O)[nH]c(N)nc54)[C@H](O)[C@@H]3O)[C@@H](O)[C@H]1O)c[n+]2Cc1ccc(Cl)cc1 [1h, 4-Cl-Bn^7GpppG]		0.67	340 ± 140	102 ± 53	~70%	2.5					
Nc1nc(O)c2c(n1)n([C@@H]1O[C@H](COP(=O)(O)OP(=O)([O-])OP(=O)(O)OC[C@H]3O[C@@H](n4cnc5c(=O)[nH]c(N)nc54)[C@H](O)[C@@H]3O)[C@@H](O)[C@H]1O)c[n+]2Cc1ccccc1 [1a, Bn^7GpppG]		0.51	270 ± 20	74 ± 23	approximately 50%		107	almost twofold higher	over fivefold		
Nc1nc(O)c2c(n1)n([C@@H]1O[C@H](COP(=O)(O)OP(=O)([O-])OP(=O)(O)OC[C@H]3O[C@@H](n4cnc5c(=O)[nH]c(N)nc54)[C@H](O)[C@@H]3O)[C@@H](O)[C@H]1O)c[n+]2Cc1ccc([N+](=O)[O-])cc1 [1n, 4-NO2-Bn^7GpppG]		0.75	520 ± 120	168 ± 43	~70%						
CO[C@@H]1[C@H](O)[C@@H](COP(=O)(O)OP(=O)([O-])OP(=O)(O)OC[C@H]2O[C@@H](n3cnc4c(=O)[nH]c(N)nc43)[C@H](O)[C@@H]2O)O[C@H]1n1c[n+](Cc2ccc(Cl)cc2)c2c(O)nc(N)nc21 [1r, 4-Cl-Bn^7GmpppG]	resistant to hDcpS	0.99	190 ± 20	45 ± 7						decreased the protein expression by twofold	
CO[C@@H]1[C@H](O)[C@@H](COP(=O)(O)OP(=O)([O-])OP(=O)(O)OC[C@H]2O[C@@H](n3cnc4c(=O)[nH]c(N)nc43)[C@H](O)[C@@H]2O)O[C@H]1n1c[n+](Cc2ccccc2)c2c(O)nc(N)nc21 [1q, Bn^7GmpppG]	resistant to hDcpS	0.97	180 ± 30	40 ± 11						additional twofold increase	
Nc1nc(O)c2c(n1)n([C@@H]1O[C@H](COP(=O)(O)OP(=O)([O-])OP(=O)(O)OC[C@H]3O[C@@H](n4cnc5c(=O)[nH]c(N)nc54)[C@H](O)[C@@H]3O)[C@@H](O)[C@H]1O)c[n+]2Cc1ccc(F)c(F)c1 [1k, 3,4-di-F-Bn^7GpppG]		0.70	880 ± 80	301 ± 30	~70%						
Cn1c[n+]([C@@H]2O[C@H](COP(=O)(O)OP(=O)([O-])OP(=O)(O)OC[C@H]3O[C@@H](n4cnc5c(=O)[nH]c(N)nc54)[C@H](O)[C@@H]3O)[C@@H](O)[C@H]2O)c2nc(N)[nH]c(=O)c21 [m^7GpppG, reference compound]		0.49	410 ± 10	127 ± 5	approximately 50%		160				1.0
Nc1nc(O)c2c(n1)n([C@@H]1O[C@H](COP(=O)(O)OP(=O)([O-])OP(=O)(O)OC[C@H]3O[C@@H](n4cnc5c(=O)[nH]c(N)nc54)[C@H](O)[C@@H]3O)[C@@H](O)[C@H]1O)c[n+]2Cc1ccc(Br)cc1 [1i, 4-Br-Bn^7GpppG]		0.60	210 ± 10	52 ± 3	~70%						
Nc1nc(O)c2c(n1)n([C@@H]1O[C@H](COP(=O)(O)OP(=O)([O-])OP(=O)(O)OC[C@H]3O[C@@H](n4cnc5c(=O)[nH]c(N)nc54)[C@H](O)[C@@H]3O)[C@@H](O)[C@H]1O)c[n+]2Cc1ccc(F)cc1 [1g, 4-F-Bn^7GpppG]		0.76	240 ± 80	64 ± 31	~70%						
CC(C)c1ccc(C[n+]2cn([C@@H]3O[C@H](COP(=O)(O)OP(=O)([O-])OP(=O)(O)OC[C@H]4O[C@@H](n5cnc6c(=O)[nH]c(N)nc65)[C@H](O)[C@@H]4O)[C@@H](O)[C@H]3O)c3nc(N)nc(O)c32)cc1 [1e, 4-iPrBn^7GpppG]	Lower susceptibility to hydrolysis	0.94	1300 ± 90	444 ± 33							
